Test results taken from patent publication US20250312462A1, “PAK1 DEGRADERS AND METHODS OF USE THEREOF” (INSTITUTE FOR CANCER RESEARCH D/B/A THE RESEARCH INSTITUTE …, priority 2022, published 2025).

Experiments:
CAMK2D = CAMK2D (Homo sapiens, UniProt Q13557); experiment: KINOMEscan; conditions: read-out: Percent Control
Method: (§1) The kinase engagement assay (KINOMEscan®) was performed by DiscoverX assessing binding abilities toward a set of kinases.

ERK5 = ERK5 (Homo sapiens, UniProt Q13164); experiment: KINOMEscan; conditions: read-out: Percent Control
Method: as §1

FLT3(K663Q) = FLT3(K663Q) (Homo sapiens, UniProt P36888, K663Q); experiment: KINOMEscan; conditions: read-out: Percent Control
Method: as §1

MAST1 = MAST1 (Homo sapiens, UniProt Q9Y2H9); experiment: KINOMEscan; conditions: read-out: Percent Control
Method: as §1

BLK = BLK (Homo sapiens, UniProt P51451); experiment: KINOMEscan; conditions: read-out: Percent Control
Method: as §1

FLT3(D835V) = FLT3(D835V) (Homo sapiens, UniProt P36888, D835V); experiment: KINOMEscan; conditions: read-out: Percent Control
Method: as §1

SGK2 = SGK2 (Homo sapiens, UniProt Q9HBY8); experiment: KINOMEscan; conditions: read-out: Percent Control
Method: as §1

WNK4 = WNK4 (Homo sapiens, UniProt Q96J92); experiment: KINOMEscan; conditions: read-out: Percent Control
Method: as §1

ASK2 = ASK2 (Homo sapiens, UniProt O95382); experiment: KINOMEscan; conditions: read-out: Percent Control
Method: as §1

PIKFYVE = PIKFYVE (Homo sapiens, UniProt Q9Y2I7); experiment: KINOMEscan; conditions: read-out: Percent Control
Method: as §1

CDK11 = CDK11 (Homo sapiens, UniProt Q9BWU1); experiment: KINOMEscan; conditions: read-out: Percent Control
Method: as §1

FGFR3 = FGFR3 (Homo sapiens, UniProt P22607); experiment: KINOMEscan; conditions: read-out: Percent Control
Method: as §1

AMPK-alpha1 = AMPK-alpha1 (Homo sapiens, UniProt Q13131); experiment: KINOMEscan; conditions: read-out: Percent Control
Method: as §1

FER = FER (Homo sapiens, UniProt P16591); experiment: KINOMEscan; conditions: read-out: Percent Control
Method: as §1

GSK3B = GSK3B (Homo sapiens, UniProt P49841); experiment: KINOMEscan; conditions: read-out: Percent Control
Method: as §1

PIK3CA(E542K) = PIK3CA(E542K) (Homo sapiens, UniProt P42336, E542K); experiment: KINOMEscan; conditions: read-out: Percent Control
Method: as §1

TNK2 = TNK2 (Homo sapiens, UniProt Q07912); experiment: KINOMEscan; conditions: read-out: Percent Control
Method: as §1

EPHB6 = EPHB6 (Homo sapiens, UniProt O15197); experiment: KINOMEscan; conditions: read-out: Percent Control
Method: as §1

ERBB4 = ERBB4 (Homo sapiens, UniProt Q15303); experiment: KINOMEscan; conditions: read-out: Percent Control
Method: as §1

MAK = MAK (Homo sapiens, UniProt P20794); experiment: KINOMEscan; conditions: read-out: Percent Control
Method: as §1

FLT3(N841I) = FLT3(N841I) (Homo sapiens, UniProt P36888, N841I); experiment: KINOMEscan; conditions: read-out: Percent Control
Method: as §1

MAP3K1 = MAP3K1 (Homo sapiens, UniProt Q13233); experiment: KINOMEscan; conditions: read-out: Percent Control
Method: as §1

MEK5 = MEK5 (Homo sapiens, UniProt Q13163); experiment: KINOMEscan; conditions: read-out: Percent Control
Method: as §1

PIK3CB = PIK3CB (Homo sapiens, UniProt P42338); experiment: KINOMEscan; conditions: read-out: Percent Control
Method: as §1

PAK2 = PAK2 (Homo sapiens, UniProt Q13177); experiment: Z'-LYTE FRET kinase inhibition assay; assay type: biochemical; parameters: PAK2 (full length); purchased Invitrogen PV4565
Method: The activity/inhibition of human recombinant PAK1 (kinase domain) or PAK2 (full length) was determined by measuring the phosphorylation of a FRET peptide substrate (Ser/Thr19) labeled with Coumarin and Fluorescein using Z′-LYTE™ assay (Invitrogen). The 10 μL assay mixtures contained 50 mM HEPES (pH 7.5), 0.01% Brij-35, 10 mM MgCl2, 1 mM EGTA, 2 μM FRET peptide substrate, and PAK enzyme (20 pM PAK1; 50 pM PAK2). Incubations were carried out at 22° C. in black polypropylene 384-well plates (Corning Costar). Prior to the assay, enzyme, FRET peptide substrate and serially diluted test compounds were preincubated together in assay buffer (7.5 μL) for 10 minutes, and the assay was initiated by the addition of 2.5 μL assay buffer containing 4×ATP (160 μM PAK1; 480 μM PAK2). Following the 60-minute incubation, the assay mixtures were quenched by the addition of 5 μL of Z′-LYTE™ development reagent, and 1 hour later the emissions of Coumarin (445 nm) and Fluorescein (520 nm) were determined after excitation at 400 nm using an Envision plate reader (Perkin Elmer). […].

PAK1 = PAK1 (Homo sapiens, UniProt Q13153); experiment: PAK1 degradation in MCF7 and OVCAR3 cells, immunoblot; assay type: cell-based; parameters: endogenous in cells; host or cells: MCF7, OVCAR3
Method: Protein lysates were harvested at the times specified.
Cell lysates were obtained by centrifugation at 13,500 rpm for 15 minutes at 4° C. BCA protein assay (Thermo Scientific) was used to determine protein concentration then equal amounts of total proteins were separated by SDS-PAGE (Bio-Rad) and transferred to PVDF membrane (Thermo Scientific) at 100V for 2 hours. Membranes were blocked in 5% (w/v) non-fat dry milk in tris-buffered saline with 0.1% Tween-20 (TBS-T) for 1 hour and incubated with primary antibody at 4° C. for overnight. Membranes were washed with TBS-T on the next day and incubated with HRP-conjugated secondary antibodies (Millipore) at room temperature for 1 hour and exposed to films after washing.

PAK1, sequence (Q13153 whole entry): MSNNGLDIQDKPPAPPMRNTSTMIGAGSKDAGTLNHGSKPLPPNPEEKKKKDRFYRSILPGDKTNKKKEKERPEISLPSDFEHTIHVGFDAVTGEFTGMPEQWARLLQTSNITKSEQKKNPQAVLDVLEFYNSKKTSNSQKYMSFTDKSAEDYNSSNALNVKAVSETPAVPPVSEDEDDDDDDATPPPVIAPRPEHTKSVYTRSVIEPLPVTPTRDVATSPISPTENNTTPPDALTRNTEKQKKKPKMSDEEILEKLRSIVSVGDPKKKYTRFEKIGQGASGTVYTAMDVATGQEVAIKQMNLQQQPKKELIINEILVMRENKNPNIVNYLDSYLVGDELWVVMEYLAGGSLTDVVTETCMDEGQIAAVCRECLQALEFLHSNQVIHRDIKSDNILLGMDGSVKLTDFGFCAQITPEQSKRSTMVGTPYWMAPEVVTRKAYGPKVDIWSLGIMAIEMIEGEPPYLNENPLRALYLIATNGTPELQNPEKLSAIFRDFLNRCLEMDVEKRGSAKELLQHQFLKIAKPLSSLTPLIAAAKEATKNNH
CAMK2D, sequence (Q13557 whole entry): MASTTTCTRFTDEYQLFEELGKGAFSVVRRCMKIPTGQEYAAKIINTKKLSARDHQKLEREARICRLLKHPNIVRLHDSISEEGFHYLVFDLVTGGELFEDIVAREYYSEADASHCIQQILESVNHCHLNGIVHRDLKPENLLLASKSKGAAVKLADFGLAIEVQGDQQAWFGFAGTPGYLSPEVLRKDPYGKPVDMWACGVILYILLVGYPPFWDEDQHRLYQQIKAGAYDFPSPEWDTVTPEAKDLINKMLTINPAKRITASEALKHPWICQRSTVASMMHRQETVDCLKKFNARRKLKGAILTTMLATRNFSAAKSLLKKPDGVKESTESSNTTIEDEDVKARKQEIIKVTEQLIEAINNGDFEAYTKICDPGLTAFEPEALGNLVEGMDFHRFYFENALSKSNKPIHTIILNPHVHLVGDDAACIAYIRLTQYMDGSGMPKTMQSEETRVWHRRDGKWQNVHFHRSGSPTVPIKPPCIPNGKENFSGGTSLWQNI
GSK3B, sequence (P49841 whole entry): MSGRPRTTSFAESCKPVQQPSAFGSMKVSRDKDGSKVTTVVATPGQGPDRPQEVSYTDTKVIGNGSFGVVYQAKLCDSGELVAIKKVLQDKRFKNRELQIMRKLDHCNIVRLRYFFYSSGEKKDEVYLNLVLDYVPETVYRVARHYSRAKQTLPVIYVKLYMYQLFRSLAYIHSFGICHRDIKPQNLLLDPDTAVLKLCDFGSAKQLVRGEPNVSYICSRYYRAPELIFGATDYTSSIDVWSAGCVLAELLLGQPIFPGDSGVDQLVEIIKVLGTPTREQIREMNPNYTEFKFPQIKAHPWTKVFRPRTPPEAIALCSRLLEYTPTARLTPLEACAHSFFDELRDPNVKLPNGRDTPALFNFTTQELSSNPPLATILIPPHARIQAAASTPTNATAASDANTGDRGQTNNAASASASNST
MAST1, sequence (Q9Y2H9 whole entry): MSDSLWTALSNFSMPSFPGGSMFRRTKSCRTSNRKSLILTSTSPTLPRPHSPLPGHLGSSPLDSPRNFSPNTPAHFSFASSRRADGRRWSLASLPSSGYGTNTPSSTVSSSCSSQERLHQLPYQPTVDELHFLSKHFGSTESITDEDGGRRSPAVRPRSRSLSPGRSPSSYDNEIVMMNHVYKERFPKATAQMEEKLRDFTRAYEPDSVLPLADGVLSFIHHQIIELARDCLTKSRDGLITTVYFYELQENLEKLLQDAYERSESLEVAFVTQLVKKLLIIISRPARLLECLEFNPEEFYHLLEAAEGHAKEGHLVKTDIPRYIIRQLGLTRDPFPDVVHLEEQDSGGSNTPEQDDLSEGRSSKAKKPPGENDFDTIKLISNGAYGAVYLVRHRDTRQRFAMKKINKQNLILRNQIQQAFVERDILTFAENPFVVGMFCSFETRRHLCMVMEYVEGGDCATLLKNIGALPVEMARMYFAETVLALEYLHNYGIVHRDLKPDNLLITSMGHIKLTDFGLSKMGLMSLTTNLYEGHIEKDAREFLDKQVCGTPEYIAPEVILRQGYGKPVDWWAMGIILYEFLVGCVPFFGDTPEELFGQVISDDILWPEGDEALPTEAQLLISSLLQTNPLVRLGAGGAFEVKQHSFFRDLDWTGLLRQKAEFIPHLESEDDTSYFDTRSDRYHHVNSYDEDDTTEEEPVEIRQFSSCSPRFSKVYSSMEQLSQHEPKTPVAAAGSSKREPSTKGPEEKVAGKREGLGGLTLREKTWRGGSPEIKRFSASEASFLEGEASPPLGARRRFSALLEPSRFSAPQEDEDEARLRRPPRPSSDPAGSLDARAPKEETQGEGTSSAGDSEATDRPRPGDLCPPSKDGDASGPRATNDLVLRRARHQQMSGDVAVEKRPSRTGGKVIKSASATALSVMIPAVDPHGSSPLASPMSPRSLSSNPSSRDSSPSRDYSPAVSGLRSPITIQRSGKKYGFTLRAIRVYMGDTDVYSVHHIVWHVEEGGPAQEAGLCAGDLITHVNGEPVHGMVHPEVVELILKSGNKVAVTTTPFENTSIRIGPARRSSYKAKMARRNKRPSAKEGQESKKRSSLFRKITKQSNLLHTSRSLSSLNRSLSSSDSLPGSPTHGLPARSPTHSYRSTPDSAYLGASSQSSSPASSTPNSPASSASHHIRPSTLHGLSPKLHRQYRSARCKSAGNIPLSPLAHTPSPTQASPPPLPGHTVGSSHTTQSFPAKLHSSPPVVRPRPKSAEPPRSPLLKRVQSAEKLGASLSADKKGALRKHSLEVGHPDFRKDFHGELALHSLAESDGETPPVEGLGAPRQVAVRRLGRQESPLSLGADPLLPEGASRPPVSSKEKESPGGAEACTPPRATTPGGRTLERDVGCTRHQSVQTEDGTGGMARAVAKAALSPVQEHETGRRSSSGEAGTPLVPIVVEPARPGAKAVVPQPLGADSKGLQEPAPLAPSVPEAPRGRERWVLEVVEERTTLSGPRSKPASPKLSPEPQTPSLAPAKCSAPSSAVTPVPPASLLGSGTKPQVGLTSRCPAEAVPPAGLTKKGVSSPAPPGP
FGFR3, sequence (P22607 23-806): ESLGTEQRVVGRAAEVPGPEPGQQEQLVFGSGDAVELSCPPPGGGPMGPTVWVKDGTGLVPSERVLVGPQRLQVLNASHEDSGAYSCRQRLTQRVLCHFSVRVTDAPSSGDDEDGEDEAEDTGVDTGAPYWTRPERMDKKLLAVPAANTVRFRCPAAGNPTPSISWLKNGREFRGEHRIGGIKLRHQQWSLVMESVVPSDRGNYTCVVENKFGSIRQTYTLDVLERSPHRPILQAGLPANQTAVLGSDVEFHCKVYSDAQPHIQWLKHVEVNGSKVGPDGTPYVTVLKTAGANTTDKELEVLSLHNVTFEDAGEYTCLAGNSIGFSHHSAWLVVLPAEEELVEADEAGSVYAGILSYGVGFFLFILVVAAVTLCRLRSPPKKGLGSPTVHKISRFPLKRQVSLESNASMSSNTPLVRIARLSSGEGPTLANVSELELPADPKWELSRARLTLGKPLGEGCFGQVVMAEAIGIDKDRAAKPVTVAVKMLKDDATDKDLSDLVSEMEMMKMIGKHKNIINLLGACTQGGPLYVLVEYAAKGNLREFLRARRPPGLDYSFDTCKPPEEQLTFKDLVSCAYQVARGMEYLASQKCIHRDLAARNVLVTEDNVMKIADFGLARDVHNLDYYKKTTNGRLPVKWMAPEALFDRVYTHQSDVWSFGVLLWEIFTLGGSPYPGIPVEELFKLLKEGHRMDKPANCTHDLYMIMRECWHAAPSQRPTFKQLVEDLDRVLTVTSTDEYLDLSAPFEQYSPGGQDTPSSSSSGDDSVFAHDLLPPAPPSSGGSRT
ERBB4, sequence (Q15303 26-1308): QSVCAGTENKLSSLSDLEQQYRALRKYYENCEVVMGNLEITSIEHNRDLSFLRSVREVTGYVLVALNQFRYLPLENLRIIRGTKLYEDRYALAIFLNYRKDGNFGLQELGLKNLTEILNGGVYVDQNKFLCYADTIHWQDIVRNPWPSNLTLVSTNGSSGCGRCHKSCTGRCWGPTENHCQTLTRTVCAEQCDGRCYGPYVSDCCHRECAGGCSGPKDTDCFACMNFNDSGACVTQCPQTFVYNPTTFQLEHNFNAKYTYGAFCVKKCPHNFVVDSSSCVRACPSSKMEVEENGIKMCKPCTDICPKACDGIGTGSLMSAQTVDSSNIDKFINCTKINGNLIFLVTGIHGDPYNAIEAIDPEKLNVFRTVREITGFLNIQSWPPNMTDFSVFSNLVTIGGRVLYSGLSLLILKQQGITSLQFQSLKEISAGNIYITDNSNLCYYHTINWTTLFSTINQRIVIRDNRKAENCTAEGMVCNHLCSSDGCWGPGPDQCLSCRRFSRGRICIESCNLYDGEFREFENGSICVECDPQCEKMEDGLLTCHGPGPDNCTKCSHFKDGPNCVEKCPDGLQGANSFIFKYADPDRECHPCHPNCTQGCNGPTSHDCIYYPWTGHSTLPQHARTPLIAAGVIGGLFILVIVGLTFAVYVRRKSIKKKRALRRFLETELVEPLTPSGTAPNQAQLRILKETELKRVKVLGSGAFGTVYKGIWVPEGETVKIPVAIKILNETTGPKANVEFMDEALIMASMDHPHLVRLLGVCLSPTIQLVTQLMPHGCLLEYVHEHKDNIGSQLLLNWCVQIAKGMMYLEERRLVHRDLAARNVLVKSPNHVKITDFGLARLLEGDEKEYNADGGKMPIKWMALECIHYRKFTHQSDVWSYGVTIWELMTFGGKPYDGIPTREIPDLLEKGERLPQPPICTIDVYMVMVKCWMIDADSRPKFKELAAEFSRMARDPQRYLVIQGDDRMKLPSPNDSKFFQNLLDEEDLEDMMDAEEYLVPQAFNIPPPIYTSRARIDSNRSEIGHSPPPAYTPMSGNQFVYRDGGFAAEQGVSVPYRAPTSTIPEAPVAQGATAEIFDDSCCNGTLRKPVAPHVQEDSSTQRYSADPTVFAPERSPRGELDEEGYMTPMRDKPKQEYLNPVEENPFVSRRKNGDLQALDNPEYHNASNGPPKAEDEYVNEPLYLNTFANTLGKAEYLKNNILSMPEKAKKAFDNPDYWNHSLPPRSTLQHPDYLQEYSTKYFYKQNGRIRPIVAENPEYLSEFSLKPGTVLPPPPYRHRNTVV

SMILES: O=C1CCC(N2C(=O)c3cccc(NCCCCCCCCNC(=O)N4CC[C@H](NC5=Nc6cc(F)ccc6N(CC(F)F)c6ccc(Cl)cc65)C4)c3C2=O)C(=O)N1 (stereo partly drawn) [BJG-05-039, (3S)-3-((2-Chloro-5-(2,2-difluoroethyl)-8-fluoro-5H-dibenzo[b,e][1,4]diazepin-11-yl)amino)-N-(8-((2-(2,6-dioxopiperidin-3-yl)-1,3-dioxoisoindolin-4-yl)amino)octyl)pyrrolidine-1-carboxamide]
- remaining binding at 10 µM (CAMK2D): 45%
- remaining binding at 10 µM (ERK5): 57%
- remaining binding at 10 µM (FLT3(K663Q)): 59%
- remaining binding at 10 µM (MAST1): 71%
- remaining binding at 10 µM (BLK): 73%
- remaining binding at 10 µM (FLT3(D835V)): 76%
- remaining binding at 10 µM (SGK2): 76%
- remaining binding at 10 µM (WNK4): 77%
- remaining binding at 10 µM (ASK2): 78%
- remaining binding at 10 µM (PIKFYVE): 79%
- remaining binding at 10 µM (CDK11): 85%
- remaining binding at 10 µM (FGFR3): 85%
- remaining binding at 10 µM (AMPK-alpha1): 86%
- remaining binding at 10 µM (FER): 88%
- remaining binding at 10 µM (GSK3B): 90%
- remaining binding at 10 µM (PIK3CA(E542K)): 91%
- remaining binding at 10 µM (TNK2): 92%
- remaining binding at 10 µM (EPHB6): 97%
- remaining binding at 10 µM (ERBB4): 97%
- remaining binding at 10 µM (MAK): 98%
- remaining binding at 10 µM (FLT3(N841I)): 100%
- remaining binding at 10 µM (MAP3K1): 100%
- remaining binding at 10 µM (MEK5): 100%
- remaining binding at 10 µM (PIK3CB): 100%
- IC50 (PAK2): > 10 µM
- Reduction in PAK1 levels by immunoblot (PAK1; FIG. 2A): ~50%
- PAK1 degradation (PAK1; MCF7 and OVCAR3 cells): induced degradation of PAK1
- Concentration of maximal PAK1 degradation (PAK1; MCF7 and OVCAR3 cells, 12 hour treatment): 10 nM
- Time to partial degradation of PAK1 (PAK1; MCF7 cells, 250 nM, progressive loss out to 24 hours): ≤ 4 h
- PAK1 degradation on co-treatment (PAK1; co-treatment with bortezomib or MLN4924): prevented PAK1 destabilization
- PAK1 degradation at high concentration (hook effect) (PAK1; concentrations of 1 μM and greater): diminished PAK1 degradation was observed
